Measurements taken from patent publication US9828623B2 (priority 2014, dated 2017).

System: cDNA probe
Conditions: pH 7.5

Substance | event mean residence time [ms]
5′-GGATTATTGTGAAATATTGA-3′ [aLF-1] | 342 ± 35
5′-GGATTATGGTGAAATATTGA-3′ [aLF-2] | 57.4 ± 2.5
AAAAAAAAAAAAAAAAAAAA [A20] | 11.7 ± 0.2
TTTTTTTTTTTTTTTTTTTT [T20] | 0.12 ± 0.01
